Assay results reported in patent US20230285441A1, “TREATMENT OF C[…] AURANOFIN” (GEORGIA STATE UNIVERSITY RESEARCH FOUNDATION, INC., priority 2020, published 2023).

How the values were obtained:
[1] = tested on: SARS-CoV-2 (USA-WA1/2020); experiment: SARS-CoV-2 infectivity titers in cell culture supernatants by plaque assay; assay type: cell-based; conditions: 4 µM auranofin, Huh7 cells, 48 hours after infection
Huh7 cells = conditions: 0.1-10 µM for 48 hours, trypan blue
[2] = tested on: IL-6, IL-1β, TNFα and NF-kB; experiment: mRNA expression of SARS-CoV-2-induced cytokines in Huh7 cells by qRT-PCR; assay type: cell-based, human
[3] = 4 µM auranofin, SARS-CoV-2 infected Huh7 cells

`CC[P](CC)(CC)=[Au][S][C@@H]1OC(COC(C)=O)[C@@H](OC(C)=O)C(OC(C)=O)C1OC(C)=O` (stereo partly drawn) [auranofin, 1-Thio-β-D-glucopyranosatotriethylphosphine gold-2,3,4,6-tetraacetate] was tested, and the “SARS-COV-2 infectivity titers in cell culture supernatants” value [1] was “significantly reduced”, the “cytotoxic concentration of 50%” value (Huh7 cells) was “approximately 5.7 µM” and the “increase in TNF-α levels (mRNA)” value [2] was “absent”. The “increase in the expression of IL-1β (mRNA)” value [2, 3] was “no increase” and the “increase in the expression of NF-kB (mRNA)” value [2, 3] was “no increase”.
